In ChEMBL document CHEMBL1201862, “PubChem BioAssay data set” (2004):
Activity calls are given as the source filed them.

Columns and labels:
Aminopeptidase N = target: T1, Aminopeptidase N (Plasmodium falciparum FcB1/Columbia, UniProt O96935); assay: P. falciparum M1AAP inhibitors, biochemical, fluorogenic H-Leu-NHMec substrate, 1536-well (AID 1445); set-up: species or system Plasmodium falciparum 3D7, 3D7
T1 sequence (O96935 whole entry): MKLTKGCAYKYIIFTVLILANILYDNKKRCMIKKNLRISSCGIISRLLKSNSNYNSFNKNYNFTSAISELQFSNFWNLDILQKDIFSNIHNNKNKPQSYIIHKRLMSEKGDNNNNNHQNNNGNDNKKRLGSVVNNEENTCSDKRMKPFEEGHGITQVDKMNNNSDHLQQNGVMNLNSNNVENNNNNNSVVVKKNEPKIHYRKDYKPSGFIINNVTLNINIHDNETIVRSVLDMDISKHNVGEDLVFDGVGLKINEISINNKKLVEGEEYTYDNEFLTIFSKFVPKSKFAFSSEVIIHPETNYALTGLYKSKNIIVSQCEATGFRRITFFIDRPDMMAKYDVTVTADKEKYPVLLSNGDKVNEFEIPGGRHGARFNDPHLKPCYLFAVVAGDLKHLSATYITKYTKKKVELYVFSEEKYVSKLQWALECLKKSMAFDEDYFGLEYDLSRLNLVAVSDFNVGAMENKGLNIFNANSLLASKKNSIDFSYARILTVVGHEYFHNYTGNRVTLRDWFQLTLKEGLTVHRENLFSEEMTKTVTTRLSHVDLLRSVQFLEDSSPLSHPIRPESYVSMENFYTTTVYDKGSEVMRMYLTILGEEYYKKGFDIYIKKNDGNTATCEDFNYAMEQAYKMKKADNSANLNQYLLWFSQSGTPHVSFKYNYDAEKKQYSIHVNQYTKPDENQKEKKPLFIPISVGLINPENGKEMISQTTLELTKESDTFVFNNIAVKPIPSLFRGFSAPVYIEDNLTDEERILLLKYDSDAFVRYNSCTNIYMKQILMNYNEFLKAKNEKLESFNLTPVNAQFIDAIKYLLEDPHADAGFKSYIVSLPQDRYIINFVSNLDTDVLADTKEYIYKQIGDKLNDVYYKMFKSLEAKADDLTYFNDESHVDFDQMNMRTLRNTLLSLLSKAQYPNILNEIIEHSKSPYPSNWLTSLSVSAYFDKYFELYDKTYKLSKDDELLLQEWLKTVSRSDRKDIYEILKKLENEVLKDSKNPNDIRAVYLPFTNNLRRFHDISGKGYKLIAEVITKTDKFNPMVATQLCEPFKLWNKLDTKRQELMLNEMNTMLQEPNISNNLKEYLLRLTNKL

[1] = target: Eukaryotic translation initiation factor 4H (Homo sapiens, UniProt Q15056); assay: human eIF4H binding inhibitors, primary screen, translation initiation inhibitor project, biochemical, uHTS, fluorescence polarization (AID 2012)
[2] = target: Polyadenylate-binding protein 1 (Homo sapiens, UniProt P11940); assay: PABP poly(A) RNA binding inhibitors, primary screen, biochemical, fluorescence polarization, uHTS (AID 2014)
[3] = Luminescence Cell-Based Dose Response HTS to Identify Activators of Luciferase Translation or Activity in H4 […] Cells. [Related pubchem assays: 1829 (Project Summary), 1814 (Primary HTS)]; type: functional
[4] = HEp-2 cell cytotoxicity, dose response, cytotoxicity control for RSV inhibitor project, HTS (AID 2410); type: functional; conditions: human respiratory syncytial virus
[5] = cytotoxicity toward NIH3T3 fibroblasts, dose response, counter-screen, cell-based, ATP luminescence, mouse fibroblasts (AID 2010); type: functional;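 also: cells exposed to compound for about 90 hours before reading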
H4 = assay: Luminescence Cell-Based Dose Response HTS to Identify Activators of 5'UTR Stem-Loop Driven Prion Protein mRNA Translation in H4 Neuroglioblastoma Cells. [Related pubchem assays: 1829 (Project Summary), 1814 (Primary HTS)]; type: functional; conditions: Homo sapiens
[6] = inhibitors of intracellular T. cruzi replication, confirmation, NIH3T3 host cells, beta-gal luminescence (AID 2044); type: functional, cell-based;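 also: intracellular parasites grown in NIH/3T3 mouse fibroblasts as host cells; luminescent beta-galactosidase reporter signal from transgenic T. cruzi replicating inside host cells; inhibitors lower the luminescence signal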
Genome polyprotein = Genome polyprotein (dengue virus type 2, UniProt P29990); assay: Dengue-2 NS5 methyltransferase inhibitors, primary screen, biochemical, confirmation dose response (AID 588689); type: functional
[7] = Luminescence Cell-Based Dose Confirmation HTS to Identify Activators of 5'UTR Stem-Loop Driven Alpha-Synuclein mRNA Translation in H4 Neuroglioblastoma Cells. [Related pubchem assays: 1829 (Project Summary), 1814 (Primary HTS)]; type: functional
[8] = target: DNA dC->dU-editing enzyme APOBEC-3G (Homo sapiens, UniProt Q9HC16); type: functional;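 also: Dose-response counterscreen measuring inhibition of APOBEC3G DNA deaminase activity, run while confirming APOBEC3A inhibitors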
[9] = target: DNA dC->dU-editing enzyme APOBEC-3A (Homo sapiens, UniProt P31941); assay: Dose Response confirmation of small molecule APOBEC3A DNA Deaminase Inhibitors via a fluorescence-based single-stranded DNA deaminase assay. [Related pubchem assays (depositor defined):AID493011, AID493024]; type: functional
[10] = target: T2, Short transient receptor potential channel 4 (Mus musculus, UniProt Q9QUQ5); assay: mouse TRPC4 channel inhibitors, dose response, cell-based, HEK293 TRPC4/mu-opioid, Fluo-4 calcium (AID 434942); type: functional;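 also: potency of inhibitors blocking the TRPC4 calcium response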
T2 sequence (Q9QUQ5 whole entry): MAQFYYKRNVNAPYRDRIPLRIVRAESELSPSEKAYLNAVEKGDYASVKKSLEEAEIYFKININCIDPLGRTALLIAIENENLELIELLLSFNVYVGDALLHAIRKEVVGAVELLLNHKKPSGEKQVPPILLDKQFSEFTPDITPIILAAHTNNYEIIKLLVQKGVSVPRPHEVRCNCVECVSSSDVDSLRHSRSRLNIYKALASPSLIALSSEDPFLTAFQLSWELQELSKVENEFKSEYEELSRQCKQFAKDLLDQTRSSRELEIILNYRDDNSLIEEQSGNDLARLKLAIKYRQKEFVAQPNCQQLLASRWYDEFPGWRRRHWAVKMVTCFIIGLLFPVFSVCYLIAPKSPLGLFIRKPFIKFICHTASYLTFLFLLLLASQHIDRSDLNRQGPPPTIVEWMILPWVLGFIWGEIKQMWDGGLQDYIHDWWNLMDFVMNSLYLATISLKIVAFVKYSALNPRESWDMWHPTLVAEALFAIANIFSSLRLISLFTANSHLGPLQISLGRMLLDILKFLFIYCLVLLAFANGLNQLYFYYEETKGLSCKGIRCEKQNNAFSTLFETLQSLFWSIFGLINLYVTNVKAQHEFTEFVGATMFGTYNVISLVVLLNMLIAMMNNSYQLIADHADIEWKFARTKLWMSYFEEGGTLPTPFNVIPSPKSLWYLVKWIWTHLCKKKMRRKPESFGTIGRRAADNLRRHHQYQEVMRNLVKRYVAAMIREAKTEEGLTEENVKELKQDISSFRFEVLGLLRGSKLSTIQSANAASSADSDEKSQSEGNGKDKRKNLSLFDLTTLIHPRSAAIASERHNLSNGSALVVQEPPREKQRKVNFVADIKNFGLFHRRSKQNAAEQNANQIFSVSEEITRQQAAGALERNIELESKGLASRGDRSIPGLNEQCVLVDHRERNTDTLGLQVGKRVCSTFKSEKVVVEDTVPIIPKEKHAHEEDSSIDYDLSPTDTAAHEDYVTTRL

X-box-binding protein 1 = target: T3, X-box-binding protein 1 (Homo sapiens, UniProt P17861); type: functional, Cricetulus griseus;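 also: confirmatory dose-response counter-screen serving a CHOP assay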
T3 sequence (P17861 whole entry): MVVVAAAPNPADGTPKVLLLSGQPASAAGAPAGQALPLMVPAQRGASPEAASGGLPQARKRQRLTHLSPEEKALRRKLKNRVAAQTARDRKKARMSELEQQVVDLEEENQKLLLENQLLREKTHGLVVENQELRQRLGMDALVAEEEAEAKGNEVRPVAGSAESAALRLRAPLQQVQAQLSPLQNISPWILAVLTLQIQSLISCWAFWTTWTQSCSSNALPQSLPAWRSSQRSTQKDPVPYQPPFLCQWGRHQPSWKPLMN

[11] = target: Alkaline phosphatase, placental type (Homo sapiens, UniProt P05187); assay: PLAP enzyme inhibitors, confirmation, biochemical, luminescence (AID 1512); type: functional
[12] = A Cell Based Secondary Assay To Explore Cytotoxicity of Compounds that Sensitize Mycobacterium Tuberculosis to Beta-Lactam Antibiotics.; type: functional
Prothrombin = Prothrombin (Homo sapiens, UniProt P00734); assay: Thrombin 1536 HTS Dose Response Confirmation. [Related pubchem assays: 1046 (Thrombin 1536 HTS; hits were confirmed in this assay)]; type: functional
[13] = growth suppression of beta-catenin-knockout colon cells, dose response, cell-based, HCT116, human colon tumor (AID 1045); type: functional;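 also: HCT116 colon tumor cells with beta catenin knocked out; cells exposed to compound for 60 hours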
[14] = growth suppression of PTEN-null colon cells, dose response, cell-based, HCT116 PTEN knockout (AID 1047); type: functional;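 also: HCT116 colon tumor cells with PTEN knocked out; cells exposed to compound for 60 hours before readout; potency for loss of cell viability measured by luminescence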
[15] = NIH-3T3 fibroblast cytotoxicity, dose response, cytotoxicity control, cell-based, fluorescence, Alamar Blue, secondary assay (AID 2327); type: functional;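 also: NIH-3T3 mouse fibroblasts cultured with fluconazole at 8 µg/mL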
[16] = C. albicans growth with fluconazole, confirmation, fluorescence, retest (AID 2467); type: functional, cell-based
[17] = Luminescence Cell-Based Dose Retest to Confirm Inhibitors of Cancer Stem Cells. [Related pubchem assays (depositor defined):AID2717, AID2721]; type: functional; conditions: Homo sapiens
Kallikrein-7 = Kallikrein-7 (Homo sapiens, UniProt P49862); assay: Fluorescence Intensity-based biochemical primary high throughput dose response assay to identify activators of kallikrein-7 (K7) zymogen.
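For AC50 in this document: cells exposed to compound for roughly 70 hours or longer before luminescence read.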

Polyadenylate-binding protein 1, sequence (P11940 whole entry): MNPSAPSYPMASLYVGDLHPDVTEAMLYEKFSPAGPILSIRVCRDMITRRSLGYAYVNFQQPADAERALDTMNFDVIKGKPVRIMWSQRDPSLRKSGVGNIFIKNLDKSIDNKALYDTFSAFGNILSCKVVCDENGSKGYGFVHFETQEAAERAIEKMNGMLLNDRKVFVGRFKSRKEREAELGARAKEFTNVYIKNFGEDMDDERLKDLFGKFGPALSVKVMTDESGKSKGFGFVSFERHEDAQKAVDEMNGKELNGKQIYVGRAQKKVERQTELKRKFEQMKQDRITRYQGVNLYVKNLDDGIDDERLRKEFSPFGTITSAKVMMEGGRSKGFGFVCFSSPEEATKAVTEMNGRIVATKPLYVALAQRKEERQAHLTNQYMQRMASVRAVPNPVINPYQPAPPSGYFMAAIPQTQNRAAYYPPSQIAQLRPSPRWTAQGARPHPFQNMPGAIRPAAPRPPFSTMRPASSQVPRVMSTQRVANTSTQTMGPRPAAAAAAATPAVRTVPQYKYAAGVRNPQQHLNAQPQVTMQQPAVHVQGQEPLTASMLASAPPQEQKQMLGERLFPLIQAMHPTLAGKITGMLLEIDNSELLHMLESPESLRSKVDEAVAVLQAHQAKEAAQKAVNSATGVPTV
DNA dC->dU-editing enzyme APOBEC-3G, sequence (Q9HC16 whole entry): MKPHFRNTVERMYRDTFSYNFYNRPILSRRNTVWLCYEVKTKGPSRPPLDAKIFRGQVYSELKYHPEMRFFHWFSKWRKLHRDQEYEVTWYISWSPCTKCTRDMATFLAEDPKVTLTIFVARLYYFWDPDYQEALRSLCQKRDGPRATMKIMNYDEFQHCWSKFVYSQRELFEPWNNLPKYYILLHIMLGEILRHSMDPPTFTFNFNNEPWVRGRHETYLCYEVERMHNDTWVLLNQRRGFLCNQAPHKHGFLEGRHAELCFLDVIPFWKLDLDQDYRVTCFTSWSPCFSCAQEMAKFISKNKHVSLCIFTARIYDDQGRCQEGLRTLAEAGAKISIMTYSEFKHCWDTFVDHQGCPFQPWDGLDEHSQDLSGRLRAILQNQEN
DNA dC->dU-editing enzyme APOBEC-3A, sequence (P31941 whole entry): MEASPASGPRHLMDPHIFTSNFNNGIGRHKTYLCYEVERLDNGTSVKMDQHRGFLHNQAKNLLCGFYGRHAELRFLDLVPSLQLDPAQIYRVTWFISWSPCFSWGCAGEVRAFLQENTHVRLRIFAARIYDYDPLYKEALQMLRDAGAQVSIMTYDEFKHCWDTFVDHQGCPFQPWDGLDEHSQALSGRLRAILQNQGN
Genome polyprotein, sequence (P29990 2492-3391 limits assumed): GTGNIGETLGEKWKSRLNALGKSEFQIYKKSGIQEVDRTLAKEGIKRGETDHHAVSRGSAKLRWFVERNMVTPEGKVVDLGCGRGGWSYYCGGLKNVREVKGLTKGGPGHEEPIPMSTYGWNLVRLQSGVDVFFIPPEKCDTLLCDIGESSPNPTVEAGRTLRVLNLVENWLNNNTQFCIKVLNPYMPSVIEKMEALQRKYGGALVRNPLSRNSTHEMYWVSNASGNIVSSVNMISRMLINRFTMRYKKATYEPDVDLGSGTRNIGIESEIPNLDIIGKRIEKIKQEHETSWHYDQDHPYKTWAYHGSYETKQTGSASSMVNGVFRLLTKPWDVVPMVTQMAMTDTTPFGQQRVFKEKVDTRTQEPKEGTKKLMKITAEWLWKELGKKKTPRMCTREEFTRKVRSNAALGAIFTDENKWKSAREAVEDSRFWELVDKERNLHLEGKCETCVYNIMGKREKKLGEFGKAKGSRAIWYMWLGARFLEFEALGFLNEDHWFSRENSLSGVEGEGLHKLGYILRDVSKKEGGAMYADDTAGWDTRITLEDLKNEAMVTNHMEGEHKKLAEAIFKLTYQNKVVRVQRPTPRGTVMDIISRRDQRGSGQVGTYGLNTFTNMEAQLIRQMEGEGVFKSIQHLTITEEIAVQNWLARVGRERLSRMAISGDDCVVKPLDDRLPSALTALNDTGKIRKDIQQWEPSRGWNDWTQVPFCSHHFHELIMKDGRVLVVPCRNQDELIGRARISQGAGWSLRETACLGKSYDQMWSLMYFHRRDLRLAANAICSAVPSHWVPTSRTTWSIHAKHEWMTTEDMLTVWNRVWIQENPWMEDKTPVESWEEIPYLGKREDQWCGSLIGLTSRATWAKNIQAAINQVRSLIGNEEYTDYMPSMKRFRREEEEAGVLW
Alkaline phosphatase, placental type, sequence (P05187 whole entry): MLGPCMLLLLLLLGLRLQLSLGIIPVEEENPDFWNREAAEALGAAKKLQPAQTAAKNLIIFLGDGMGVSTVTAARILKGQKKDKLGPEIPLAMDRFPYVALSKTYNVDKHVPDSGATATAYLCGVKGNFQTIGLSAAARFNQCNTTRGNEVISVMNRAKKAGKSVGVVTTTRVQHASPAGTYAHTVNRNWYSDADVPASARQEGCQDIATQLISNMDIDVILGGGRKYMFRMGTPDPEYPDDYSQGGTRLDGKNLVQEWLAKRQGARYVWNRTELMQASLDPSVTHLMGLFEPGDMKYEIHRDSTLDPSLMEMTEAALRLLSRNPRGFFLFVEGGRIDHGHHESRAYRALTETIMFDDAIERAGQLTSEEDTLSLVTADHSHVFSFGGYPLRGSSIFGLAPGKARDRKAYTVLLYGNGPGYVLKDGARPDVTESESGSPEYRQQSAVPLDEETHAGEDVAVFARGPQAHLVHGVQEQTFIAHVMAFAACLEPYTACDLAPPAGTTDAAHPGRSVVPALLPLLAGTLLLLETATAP
Kallikrein-7, sequence (P49862 whole entry): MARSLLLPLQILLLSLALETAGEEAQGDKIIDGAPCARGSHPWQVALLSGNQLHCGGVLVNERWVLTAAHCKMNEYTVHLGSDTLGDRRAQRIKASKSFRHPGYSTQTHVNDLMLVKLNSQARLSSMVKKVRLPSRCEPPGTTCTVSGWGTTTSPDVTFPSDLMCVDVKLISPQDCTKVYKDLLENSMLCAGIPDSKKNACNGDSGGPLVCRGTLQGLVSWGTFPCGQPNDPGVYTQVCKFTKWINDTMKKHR

Cc1ccc(C(=O)NCC(=O)OCC(=O)NC(C)c2ccccc2)s1 (stereo not given)
IC50 (Aminopeptidase N): 39.6 µM (active)

CC1=CC(C)C(CN(CCC[N+](C)(C)C)C(=O)Nc2ccccc2)C(C)C1 (stereo not given)
IC50 [1]: > 100 µM (inactive) | IC50 [2]: 4.08 µM (active)

Cc1[nH]c2ccccc2c1/C=C1\SC(=S)N(c2cccc(C(=O)O)c2)C1=O
IC50 (Aminopeptidase N): 55.9 µM (active)

O=C(NC(=S)Nc1ccccc1C(=O)O)c1ccc(-c2ccc(Br)cc2)o1
EC50 [3]: 12.5 µM (active) | CC50 [4]: 19 µM (active) | EC50 [5]: > 60 µM (not active) | EC50 (H4): 22.1 µM (active) | EC50 [6]: 2.13 µM (active) | IC50 (cells): 6.21 µM (active) | IC50 (Genome polyprotein): 42.2 µM (active) | EC50 [7]: 71.2 µM (active)

COC(=O)CCCCCCCCC(O)C[N+]1(C)CCOCC1 (stereo not given)
IC50 [1]: > 100 µM (inactive) | IC50 [8]: 3.49 µM (active) | IC50 [9]: 2.36 µM (active) | IC50 [2]: 2.48 µM (active)

CC1(C)CC2CC(C)(CN2CC(O)COc2ccccc2)C1 (stereo not given)
EC50 [10]: 1.88 µM (active)

Cn1c(=O)cc(SCC(=O)NCCC2=CCCCC2)c2ccc(Cl)cc21
Absolute IC50 (XBP1) (X-box-binding protein 1): 10 µM

CCCCCCCCCCSc1nnc(NC(C)=O)[nH]1
IC50 [11]: > 100 µM (inactive)

C[C@H]1C=CC(=O)O[C@H]1c1ccccc1
CC50 [12]: 22.9 µM (active)

Cc1nn2c(NCCCN(C)C)c3c(nc2c1-c1ccccc1)CCC3
EC50 [5]: > 60 µM (not active) | IC50 (Prothrombin): > 50 µM (not active) | EC50 [13]: 15.9 µM (active) | EC50 [6]: 0.625 µM (active) | EC50 [14]: 15.9 µM (active)

COc1ccc(N(C(=O)c2ccco2)S(=O)(=O)c2ccc(F)cc2)cc1
IC50 (Prothrombin): 17.5 µM (active)

C=CCN(C(=O)Nc1ccc2c(c1)nc(C)n2C)c1ccccc1
IC50 (Prothrombin): > 50 µM (not active)

CCn1c(SCC(=O)NCc2ccccc2)nnc1C(CO)NC(=O)c1ccccc1 (stereo not given)
IC50 [1]: > 100 µM (inactive) | IC50 [8]: 4.48 µM (active) | IC50 [9]: 3.67 µM (active) | IC50 [2]: 6.06 µM (active)

NNC(=O)Cn1c(-c2nonc2N)nc2ccccc21
IC50 (Aminopeptidase N): 58.2 µM (active)

COC(=O)c1c(C)n(-c2ccccc2)c2ccc(O)cc12
CC50 [12]: > 40 µM (active) | EC50 [15]: 2.59 µM (inconclusive) | EC50 [16]: > 38 µM (not active)

O=C(c1ccc2c(c1)OCO2)C1CCCN(Cc2ccccc2OC(F)F)C1 (stereo not given)
EC50 [10]: 2.99 µM (active)

CCOC(=O)N1CCC(n2c(=S)[nH]c3cc(OCC)c(OCC)cc3c2=O)CC1
Absolute IC50 (XBP1) (X-box-binding protein 1): 10 µM

OCCCNc1cc(-c2ccccc2)nc2cc(-c3ccc(F)cc3)nn12
CC50 [4]: > 50 µM (active) | AC50 [17]: 6.05 µM (active) | IC50 (cells): 22.4 µM (active)

CCCCCC(=O)Nc1cccc(C2=NOC3(C2)C[C@@H](C(N)=O)N(C(=O)CC(c2ccccc2)c2ccccc2)C3)c1 (stereo not given in full)
CC50 [12]: > 40 µM (active) | EC50 [5]: > 60 µM (not active) | EC50 [6]: 0.396 µM (active)

COC(=O)c1ccc(C2C(C#N)=C(C)N=C3CC(C)(C)CC(O)=C32)cc1 (stereo not given)
EC50 (Kallikrein-7): 20.8 µM (inactive)

CCC(C)NCCOc1cc(C)cc(C)c1C (stereo not given)
IC50 (Prothrombin): > 50 µM (not active)

COCCCNc1cc(C)nc2ccccc12
EC50 [10]: 3.76 µM (active)

COc1ccc(/C=N/Nc2nc(-c3ccc(C)cc3)c(NC(C)=O)s2)cc1
CC50 [12]: > 40 µM (active)

CC[N+](C)(CC)CCC/C(=N/O)C(O)(c1ccccc1)c1ccccc1
IC50 [1]: > 100 µM (inactive) | IC50 [2]: 5.57 µM (active)

CC(=O)OC[C@]12CCC(C)=C[C@H]1O[C@@H]1[C@H](O)[C@@H](OC(C)=O)[C@@]2(C)[C@]12CO2 [ANGUIDIN]
Absolute IC50 (XBP1) (X-box-binding protein 1): 0.16 µM
